Test results: ChEMBL document CHEMBL3638781, “Inhibitors of Œ=-secretase” (2015)

Biological target: Beta-secretase 1 (Homo sapiens, UniProt P56817)
Test: Fluorescence Quench Assay: The inhibitory activity of compounds was assessed by a fluorescence quench assay of BACE1 activity using commercially available substrate HiLyte Fluor 488-[…](QXLT 520)-OH (SEQ ID NO:1) AnaSpec, San Jose, Calif.) and truncated human beta-secretase, BACE1 (amino acids 1-454) fused to a myc-his tag and secreted from HEK293/BACEect. cells into OptiMEM (Invitrogen). The substrate was dissolved at 1 mg/ml in DMSO.The assay was performed in the presence of OptiMEM (supernatant collected over 24 h and cleared from cellular debris by centrifugation) containing the ectodomain of BACE1, 25 ul water containing the desired 2-fold concentration of test compound and 2% DMSO, 1 uM substrate peptide, 20 mM NaOAc, pH 4.4, and 0.04% Triton-X100 in a total assay volume of 50 ul in a 384 well plate. In general, 25 ul of compound dilution were given to the plate followed by the addition of 10 ul of BACE1 containing OptiMEM diluted 1:10 in water.

Chain of Beta-secretase 1 (P56817 whole entry, the tested form may be a part): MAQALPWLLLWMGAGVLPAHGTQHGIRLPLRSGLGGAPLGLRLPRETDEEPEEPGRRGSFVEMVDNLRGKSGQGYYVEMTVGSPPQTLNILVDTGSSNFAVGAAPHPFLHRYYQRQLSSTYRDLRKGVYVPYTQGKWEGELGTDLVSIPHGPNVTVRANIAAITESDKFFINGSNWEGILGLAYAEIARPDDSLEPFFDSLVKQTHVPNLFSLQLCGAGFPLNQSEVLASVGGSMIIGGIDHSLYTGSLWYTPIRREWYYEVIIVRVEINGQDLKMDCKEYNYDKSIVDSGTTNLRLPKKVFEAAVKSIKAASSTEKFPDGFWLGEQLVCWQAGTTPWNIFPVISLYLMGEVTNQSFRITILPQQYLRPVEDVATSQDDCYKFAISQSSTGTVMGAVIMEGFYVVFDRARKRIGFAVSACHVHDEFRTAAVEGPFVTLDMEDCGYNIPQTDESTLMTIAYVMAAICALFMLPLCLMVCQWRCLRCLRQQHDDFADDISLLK

IC50: 11 nM
Structure (SMILES): CO[C@H]1CC[C@@]2(Cc3ccc(C#N)cc3[C@]23N=C(N)N(Cc2ncccn2)C3=O)C[C@@H]1C
